These results are taken from publication PMC10296238, “A Magnetic-Bead-Based Immunoassay with a Newly Developed Monoclonal Antibody for Rapid and Highly Sensitive Detection of Forchlorfenuron” (Biosensors, 2023).

In one data set the test system is anti-CPPU mAb 14G1. In words: conventional indirect competitive ELISA (icELISA) based on mAb 14G1. Conditions: for icELISA CR: CR = IC50 of CPPU/IC50 of analyte × 100%. Format: binding, mouse. Here is the method: A conventional icELISA was developed for CPPU detection as follows: 0.5 μg/mL CPPU–BSA was dropped into the 96-well microplate (100 μL/well) and incubated overnight at 4 °C. The plates were blocked at 37 °C with 5% skim milk in PBST (PBS containing 0.05% Tween 20) for 1 h. After washing the plate with PBST three times, 50 μL of mAb 14G1 and 50 μL of sequentially diluted CPPU standard solution were added. The plate was incubated for 1 h at 37 °C, washed three times, and 100 μL/well of goat anti-mouse lgG-HRP solution was added for another 1 h of incubation. After washing six times, 100 μL/well of TMB substrate was added to the plate and reacted for 15 min. Finally, 2 M H2SO4 (50 μL/well) was added into the plate to stop the reaction, and the OD450 value was read with a microplate reader.
(§1) The cross-reactivities (CRs) of the developed MB-based assay and icELISA with compounds structurally related to CPPU were used to evaluate the selectivity of the assays. The CR value of each compound was calculated as follows: CR (%) = (IC50 of CPPU/IC50 of analyte) × 100%.
The experimental conditions of conventional icELISA were optimized. The evaluation criteria were the 50% inhibition concentration (IC50; representing the sensitivity) and maximum absorbance (ODmax) of the negative control. The working concentrations of the CPPU–BSA conjugate and mAb 14G1 were primarily optimized by a checkerboard titration. The concentration of CPPU–BSA coated in the plate was diluted from 2.0 μg/mL to 0.25 μg /mL, and anti-CPPU mAb 14G1 was diluted in a series of two-fold dilutions from 1:2000. […] After optimization, the concentrations of CPPU–BSA and mAb 14G1 were 0.5 μg/mL and 0.016 μg/mL for icELISA (Figure S2a). Then, the process parameters of icELISA were optimized through single-factor experiments. The influence of blocking reagents commonly used in ELISA systems, OVA, skim milk, and BSA, were evaluated and compared for their effectiveness in reducing nonspecific binding. Finally, 5% skim milk was selected, which gave a minimum IC50 value (Figure S2b). CPPU is a lipophilic, small organic compound, and methanol has been reported to be a more acceptable co-solvent for CPPU during the immunochemical reaction. The effect of methanol concentration on immunoassay performance was assessed. […] The ionic strength of 136 mM, which provided the lowest IC50 value, was selected. The pH value is one of the key factors influencing the characteristics of the assay. From Figure S2e, the value of pH 7.4 was selected as the optimum for the assay based on the favorable IC50 value. Under the optimal assay conditions, an indirect competitive ELISA standard curve was established (Figure 3). […] Moreover, the assay has a linear range (IC20–IC80) of 0.005–0.231 ng/mL.

In data set [1] the test system is anti-CPPU mAb 14G1–HRP. Briefly: direct competitive magnetic-bead (MB)-based assay with mAb 14G1–HRP. The class given is binding, mouse. The following applies: for MB-Based Assay CR: CR = IC50 of CPPU/IC50 of analyte × 100%. Here is the method: A direct competitive MB-based assay was developed as follows. First, the 96-well microtiter plate was pre-sealed with 5% skim milk at 37 °C for 1 h. After washing with PBST, MB–CPPU–BSA (10 μg/μL, 10 μL per well) was added to the 96-well plate. Subsequently, 50 μL of serially diluted CPPU standards and 50 μL of diluted mAb–HRP (1:3200) were mixed into the wells. The plate was shaken well and incubated at 37 °C for 20 min and then placed on a magnetic base to precipitate the MB. Then, the supernatant was discarded, and the plate was washed three times with PBST. After washing, TMB substrate (100 μL per well) was added and incubated for 15 min at 37 °C. The reaction was stopped with 2 M H2SO4, and the absorbance was measured at a wavelength of 450 nm.
The reaction parameters greatly influence assay sensitivity. Therefore, the experimental parameters including concentrations of MB–CPPU–BSA and mAb–HRP, ionic strength, pH value, and organic solvent content in buffer were investigated to improve the sensitivity of the MB-based assay. After optimization, the standard curve for the MB-based assay was generated by plotting the B/B0 (B and B0 were defined as the OD450 in the presence and absence of CPPU, respectively) against the logarithm of CPPU concentration. The 50% inhibitory concentration value (IC50) calculated from the curves was used to evaluate assay sensitivity.
as §1
To obtain better analytical performance of the MB-based assay, the reaction conditions were investigated. First of all, the working concentrations of MB–CPPU–BSA and mAb 14G1–HRP were determined by checkerboard titration as 0.1 mg/mL and 1:6400 dilution, respectively (Table S1). Then, the influence of other parameters on the assay was also optimized, in which the IC50 value was used as the main criterion. The effects of different ionic strengths and different pH values of the PBS solution on antigen–antibody binding in the MB-based assay were evaluated (Figure S4a,b). […] The optimal methanol concentration was selected to be 5% for the lower IC50. To shorten the detection duration, the incubation time for the competitive reaction between MB–CPPU–BSA and free-CPPU for binding to mAb–HRP tracer was optimized in sequence. […] Shorter incubation times may result in insufficient antigen–antibody binding, while longer incubation times not only further increased the maximum intensity but also led to higher background signals from non-specific binding. Therefore, incubation was stopped after 20 min, and beads were washed to remove unbound antibody.

Data set [2] has as its system anti-CPPU mAb 14G1–HRP. The description is as above. The class given is binding, mouse.
In a further data set the test system is mAb (s5#34). The following applies: cited from earlier work.
The subject of another data set is mAb. The following applies: cited from earlier work.
The test system of a further data set is mAb, P6#42. The following applies: cited from earlier work.
The next data set deals with zebrafish. The following applies: cited from earlier work.
The test system of the next data set is pAb. Further details: method as in earlier work. The following applies: cited from earlier work.
A further data set deals with mAb against CPPU. Conditions: cited from earlier work.
In a further data set the test system is rats. Conditions: cited from earlier work.

Values after ≈ are worked out from the molar mass of the structure shown.

On to `Cc1ccc(NC(=O)N(C)C)cc1Cl` [Chlorotoluron], for which the “icELISA CR” value in the data set with anti-CPPU mAb 14G1 was under 1.0%. Moreover, in the data set on anti-CPPU mAb 14G1 (optimal assay conditions), the “icELISA IC50” value is given as over 2.5 ng/mL. Besides, the “MB-Based Assay CR” value in the data set on anti-CPPU mAb 14G1–HRP [1] is under 0.6%. Also, the “MB-Based Assay IC50” value with anti-CPPU mAb 14G1–HRP [1] (optimized conditions) is over 1.0 ng/mL.

As for `Clc1ccccc1-c1nnc(-c2ccccc2Cl)nn1` [Clofentezine], the “icELISA CR” value in the data set on anti-CPPU mAb 14G1 is reported as under 1.0%. Besides, the “icELISA IC50” value in the data set with anti-CPPU mAb 14G1 (optimal assay conditions) is over 2.5 ng/mL. Also, the “MB-Based Assay CR” value with anti-CPPU mAb 14G1–HRP [1] was under 0.6%. Also, the “MB-Based Assay IC50” value in the data set on anti-CPPU mAb 14G1–HRP [1] (optimized conditions) is on record as over 1.0 ng/mL.

`CN(C)C(=O)Nc1ccc(Cl)c(Cl)c1` [Diuron]: in the data set with anti-CPPU mAb 14G1, the “icELISA CR” value is on record as under 1.0%. In the data set on anti-CPPU mAb 14G1 (optimal assay conditions), the “icELISA IC50” value was over 2.5 ng/mL. Further, the “MB-Based Assay CR” value with anti-CPPU mAb 14G1–HRP [1] is reported as under 0.6%. Moreover, in the data set with anti-CPPU mAb 14G1–HRP [1] (optimized conditions), the “MB-Based Assay IC50” value is given as over 1.0 ng/mL.

For the compound `O=C(Nc1ccccc1)Nc1ccnc(Cl)c1` [Forchlorfenuron (CPPU), Forchlorfenuron], the “IC50, MB-based assay optimization” value with anti-CPPU mAb 14G1–HRP [2] (mAb-HRP 1:400, MB-CPPU-BSA 0.0125 μg/μL) is 0.0315 ng/mL (≈ 0.127 nM). For the same compound, the “IC50, MB-based assay optimization” value in the data set with anti-CPPU mAb 14G1–HRP [2] (mAb-HRP 1:800, MB-CPPU-BSA 0.025 μg/μL) is recorded as 0.0147 ng/mL (≈ 0.0593 nM). The “IC50, MB-based assay optimization” value in the data set with anti-CPPU mAb 14G1–HRP [2] (mAb-HRP 1:1600, MB-CPPU-BSA 0.05 μg/μL) is 0.0139 ng/mL (≈ 0.0561 nM). Also, the “IC50, MB-based assay optimization” value with anti-CPPU mAb 14G1–HRP [2] (mAb-HRP 1:3200, MB-CPPU-BSA 0.10 μg/μL) was 0.0132 ng/mL (≈ 0.0533 nM). Moreover, the “IC50, MB-based assay optimization” value with anti-CPPU mAb 14G1–HRP [2] (mAb-HRP 1:6400, MB-CPPU-BSA 0.20 μg/μL) stood at 0.0140 ng/mL (≈ 0.0565 nM). Moreover, the “icELISA IC50 during optimization” value with anti-CPPU mAb 14G1 (5% methanol, Figure S2c) was 0.0372 ng/mL. In addition, the “icELISA CR” value with anti-CPPU mAb 14G1 is 100%. Further, in the data set on anti-CPPU mAb 14G1 (optimal assay conditions), the “icELISA IC50” value was found to be 0.0253 ng/mL; the “icELISA limit of detection (LOD, IC10)” value was found to be 0.002 ng/mL; the “icELISA linear range (IC20–IC80)” value was in the range of 0.005 to 0.231 ng/mL. The “dcELISA (mAb) LOD” value in the data set with mAb (s5#34) is given as 0.01 ng/mL. Besides, the “dcELISA IC50” value in the data set on mAb (s5#34) (in buffer) is listed as 63 ng/L. In the data set on mAb, the “icELISA (mAb) LOD” value is given as 0.013 ng/mL and the “icELISA (mAb) linear range” value was 0.022 to 0.156 ng/mL. For the same compound, in the data set with mAb, P6#42, the “LFIA IC50” value is recorded as 286 ng/L, the “LFIA LOD” value is given as 0.045 ng/mL and the LFIA linear range was 0.089 to 0.916 ng/mL. Besides, the “toxic effects in zebrafish” value in the data set with zebrafish is “cardiac morphology deformation, cardiac contractile dysfunction, and erythrocyte reduction”. Besides, in the data set with pAb, the “dcELISA (pAb) IC50” value was 0.077 ng/mL, the “dcELISA (pAb) LOD” value is reported as 0.012 ng/mL and the “dcELISA (pAb) linear range” value is given as 0.025-0.276 ng/mL. Also, in the data set on mAb against CPPU, the “icELISA IC50” value is reported as 1.04 ng/mL, the “icELISA LOD” value is on record as 0.16 ng/mL and the icELISA linear range was 0.31 to 3.43 ng/mL. The “MB-Based Assay CR” value with anti-CPPU mAb 14G1–HRP [1] is 100%. For the same compound, the “estimated LOD in grape, MB-based assay” value in the data set on anti-CPPU mAb 14G1–HRP [1] (grape, considering dilution factor of the sample (100-fold)) was 0.0168 µg/kg. For the same compound, the “estimated LOD in kiwifruit, MB-based assay” value in the data set on anti-CPPU mAb 14G1–HRP [1] (kiwifruit, considering dilution factor of the sample (100-fold)) is 0.0191 µg/kg. Besides, in the data set on anti-CPPU mAb 14G1–HRP [1] (optimized conditions), the “MB-Based Assay IC50” value is on record as 0.0061 ng/mL, the “MB-based assay LOD” value is 0.0004 ng/mL and the “MB-based assay linear detection range (IC20–IC80)” value was 0.0016 to 0.0259 ng/mL. Besides, the “toxic effects in rats” value in the data set with rats is “potential adverse effects on the ovaries and on the production of steroid hormones”.

As for `CON(C)C(=O)Nc1ccc(Cl)c(Cl)c1` [Linuron], the “icELISA CR” value with anti-CPPU mAb 14G1 is reported as under 1.0%. The “icELISA IC50” value in the data set on anti-CPPU mAb 14G1 (optimal assay conditions) was over 2.5 ng/mL. Moreover, the “MB-Based Assay CR” value with anti-CPPU mAb 14G1–HRP [1] is reported as under 0.6%. In the data set on anti-CPPU mAb 14G1–HRP [1] (optimized conditions), the “MB-Based Assay IC50” value is on record as over 1.0 ng/mL.

Consider `O=C(Nc1ccccc1)Nc1cnns1` [Thidiazuron], for which the “icELISA CR” value is under 1.0% in the data set with anti-CPPU mAb 14G1 and “negligible cross-reaction” in the data set on anti-CPPU mAb 14G1 (listed as thidiazuron). Moreover, the “icELISA IC50” value in the data set on anti-CPPU mAb 14G1 (optimal assay conditions) was over 2.5 ng/mL. In the data set with mAb (s5#34) (mAb s5#34), the “dcELISA cross-reactivity (CR)” value was 71%. Besides, the “MB-Based Assay CR” value in the data set on anti-CPPU mAb 14G1–HRP [1] is recorded as under 0.6%; in the data set on anti-CPPU mAb 14G1–HRP [1] (listed as thidiazuron) it was “negligible cross-reaction”. Further, in the data set on anti-CPPU mAb 14G1–HRP [1] (optimized conditions), the “MB-Based Assay IC50” value was over 1.0 ng/mL.
